From patent US20070203091A1, “Methods and therapeutic compositions for improving liver, blood flow and skeletal muscle functions in advanced diseases and aging” (priority 2006, published 2007)

Key:
[1] = Quality of life (EORTC QLQ-C30), appetite, energy and body weight, Phase I study; format: in vivo, human
Excerpt: Nine qualified patients have been enrolled in the study as of Sep. 1, 2001; seven of which received the first 3 cycles of the study drug and are therefore evaluable for the primary endpoint. Two of the seven evaluable patients had advanced prostate cancer with bone metastases and one each had advanced mesothelioma, metastatic breast cancer, metastatic melanoma, metastatic colon cancer and renal cell carcinoma.
Three of these parameters are EORTC QLQ-C30 patient-oriented questionnaire, skeletal (voluntary) muscle strength and percent body fat. […] The screening value is used as the patients' baseline. In some patients a deterioration in overall quality of life between screening and week 1, prior to the administration of study drug has been observed. […] A more accurate baseline for evaluation of the efficacy of ATP treatment on cancer cachexia and quality of life parameters is therefore recommended.

[2] = Cachexia markers Part II: blood TNF-alpha, Interleukin-6, Phase I study; format: in vivo, human
Excerpt: TNF-alpha is an acknowledged independent negative prognostic factor of morbidity and mortality in the elderly (30).

[3] = cited from earlier work
[4] = Karnofsky Performance Status, Phase I study; format: in vivo, human; conditions: for Karnofsky Performance Status, Change from Baseline, Mean / Karnofsky Performance Status, Change from Baseline, Median / Karnofsky Performance Status, Observed Values, Mean / Karnofsky Performance Status, Observed Values, Median: ITT
Excerpt: The present patient population was clinically deteriorating rapidly with four of the fifteen patients not meeting the protocol inclusion criteria and being granted exemptions (page 15-18). An amendment to the protocol had to be sought because Karnofsky Performance Status of some patients dropped between the screening date and the first pre-infusion date. Considering the clinical status of the present patient population at the start of the trial along with Karnofsky Performance Score being a surrogate end-point for Quality of Life in advanced, refractory, terminal cancers, these findings support claims reciting benefits to quality of life by claimed treatment in a human host in need thereof.

[5] = Patient 504, while on ATP treatment
[6] = patients 502-505, week 1 (pre-dose) to week 13 (follow-up)
[7] = patients 502-505, week 13 follow-up
[8] = low levels of ATP administered directly into the duodenum
[9] = Week 1 (Infusion 1), baseline, N=15

SMILES: Nc1ncnc2c1ncn2[C@@H]1O[C@H](COP(=O)(O)OP(=O)(O)OP(=O)(O)O)[C@@H](O)[C@H]1O [ATP, adenosine 5′-triphosphate]
- patient's comment on energy / appetite ([1]; Patient 502, during the treatment period): improved energy levels
- patient's comment on energy / appetite ([1]; Patient 503, during ATP therapy): improved energy and appetite
- patient's comment on energy / appetite [1, 5]: increased energy and appetite
- weight [1, 5]: increasing
- patient's comment on energy / appetite ([1]; Patient 505, while on study): improved energy and appetite
- patient's comment on energy / appetite ([1]; Patient 506): more energy and improved appetite
- Other Endpoints (patient's comment on energy) ([1]; Patient 507, while on ATP Rx): Felt more energy
- patient's comment on energy / activity ([1]; Patient 509): subjective improvement in energy and activity
- subjective comments of several patients on appetite and energy ([1]; during the study, first nine patients): improved appetite and energy
- Global Health Status of the QOL EORTC QLQ-C30 ([1]; patients 502-505, screening (week <1) to follow-up (week 10)): Increases
- appetite loss ([1]; patients 502-505, screening to week 10 (follow-up)): Decreases
- body weight [1, 6]: Stabilization
- Global Health Status of the QOL EORTC QLQ-C30 [1, 7]: decline
- appetite loss [1, 7]: return to screening baseline
- Interleukin-6 levels ([2]; upon ATP treatment): not stabilized
- levels of blood tumor necrosis factor-alpha (TNF-alpha) ([2]; week 13): stabilize
- arterial oxygen pressure (PaO2) ([3]; after the administration of ATP into the duodenum): increase
- Pulmonary Vascular Resistance [3, 8]: reductions
- arterial blood pressure or heart rate [3, 8]: No effects
- blood flow [3, 8]: increases
- peripheral vascular resistance [3, 8]: reductions
- Karnofsky Performance Status ([4]; ITT patient population): stabilize
- Karnofsky Performance Status, Change from Baseline, Mean [4, 9]: 0.0%
- Karnofsky Performance Status, Change from Baseline, Median [4, 9]: 0.0%
- Karnofsky Performance Status, Observed Values, Mean [4, 9]: 78.0%
- Karnofsky Performance Status, Observed Values, Median [4, 9]: 80.00%
- Karnofsky Performance Status, Change from Baseline, Mean ([4]; Week 2 (Infusion 2), N=14): −2.1%
- Karnofsky Performance Status, Change from Baseline, Median ([4]; Week 2 (Infusion 2), N=14): 0.0%
- Karnofsky Performance Status, Observed Values, Mean ([4]; Week 2 (Infusion 2), N=14): 77.1%
- Karnofsky Performance Status, Observed Values, Median ([4]; Week 2 (Infusion 2), N=14): 75.0%
- Karnofsky Performance Status, Change from Baseline, Mean ([4]; Week 3 (Infusion 3), N=13): −2.3%
- Karnofsky Performance Status, Change from Baseline, Median ([4]; Week 3 (Infusion 3), N=13): 0.0%
- Karnofsky Performance Status, Observed Values, Mean ([4]; Week 3 (Infusion 3), N=13): 76.9%
- Karnofsky Performance Status, Observed Values, Median ([4]; Week 3 (Infusion 3), N=13): 80.0%
- Karnofsky Performance Status, Change from Baseline, Mean ([4]; Week 4 (Infusion 4), N=11): −0.9%
- Karnofsky Performance Status, Change from Baseline, Median ([4]; Week 4 (Infusion 4), N=11): 0.0%
- Karnofsky Performance Status, Observed Values, Mean ([4]; Week 4 (Infusion 4), N=11): 78.2%
- Karnofsky Performance Status, Observed Values, Median ([4]; Week 4 (Infusion 4), N=11): 80.0%
- Karnofsky Performance Status, Change from Baseline, Mean ([4]; Week 5 (Infusion 5), N=10): −7.0%
- Karnofsky Performance Status, Change from Baseline, Median ([4]; Week 5 (Infusion 5), N=10): 0.0%
- Karnofsky Performance Status, Observed Values, Mean ([4]; Week 5 (Infusion 5), N=10): 71.0%
- Karnofsky Performance Status, Observed Values, Median ([4]; Week 5 (Infusion 5), N=10): 75.0%
- Karnofsky Performance Status, Change from Baseline, Mean ([4]; Week 6 (Infusion 6), N=9): −4.4%
- Karnofsky Performance Status, Change from Baseline, Median ([4]; Week 6 (Infusion 6), N=9): 0.0%
- Karnofsky Performance Status, Observed Values, Mean ([4]; Week 6 (Infusion 6), N=9): 74.4%
- Karnofsky Performance Status, Observed Values, Median ([4]; Week 6 (Infusion 6), N=9): 80.0%
- Karnofsky Performance Status, Change from Baseline, Mean ([4]; Week 7 (Infusion 7), N=7): −4.3%
- Karnofsky Performance Status, Change from Baseline, Median ([4]; Week 7 (Infusion 7), N=7): 0.0%
- Karnofsky Performance Status, Observed Values, Mean ([4]; Week 7 (Infusion 7), N=7): 72.9%
- Karnofsky Performance Status, Observed Values, Median ([4]; Week 7 (Infusion 7), N=7): 70.0%
- Karnofsky Performance Status, Change from Baseline, Mean ([4]; Week 8 (Infusion 8), N=7): −5.7%
- Karnofsky Performance Status, Change from Baseline, Median ([4]; Week 8 (Infusion 8), N=7): −10.0%
- Karnofsky Performance Status, Observed Values, Mean ([4]; Week 8 (Infusion 8), N=7): 71.4%
- Karnofsky Performance Status, Observed Values, Median ([4]; Week 8 (Infusion 8), N=7): 70.0%
- Karnofsky Performance Status, Change from Baseline, Mean ([4]; Week 10 (Follow-up), N=6): −5.0%
- Karnofsky Performance Status, Change from Baseline, Median ([4]; Week 10 (Follow-up), N=6): −5.0%
- Karnofsky Performance Status, Observed Values, Mean ([4]; Week 10 (Follow-up), N=6): 73.3%
- Karnofsky Performance Status, Observed Values, Median ([4]; Week 10 (Follow-up), N=6): 70.0%
- Karnofsky Performance Status, Change from Baseline, Mean ([4]; Week 13 (Follow-up), N=5): −4.0%
- Karnofsky Performance Status, Change from Baseline, Median ([4]; Week 13 (Follow-up), N=5): 0.0%
- Karnofsky Performance Status, Observed Values, Mean ([4]; Week 13 (Follow-up), N=5): 76.0%
- Karnofsky Performance Status, Observed Values, Median ([4]; Week 13 (Follow-up), N=5): 80.0%
- Karnofsky Performance Status [4, 6]: Small increases
